In patent publication US11136327B2, “Macrocycles as factor XIA inhibitors” (Bristol-Myers Squibb Company, priority 2010, dated 2021) one finds ring closure, yield after HPLC, ring closure, isolated yield and Ki data, which are given here for 17 compounds.

Like-named read-outs stand apart in the source and are kept apart here.

Assay in data set [1]: not given
The source holds these as a separate data set.

Data set [2] addresses purified human Factor XIa (Homo sapiens (Human), UniProt P03951). In words: Factor XIa enzyme inhibition assay (chromogenic substrate S-2366). It counts as biochemical. The conditions noted are these: substrate S-2366, pH 7.4. The method, then: The effectiveness of compounds of the present invention as inhibitors of the coagulation Factors XIa, VIIa, IXa, Xa, XIIa, plasma kallikrein or thrombin, can be determined using a relevant purified serine protease, respectively, and an appropriate synthetic substrate. The rate of hydrolysis of the chromogenic or fluorogenic substrate by the relevant serine protease was measured both in the absence and presence of compounds of the present invention. […] A decrease in the rate of absorbance or fluorescence change in the presence of inhibitor is indicative of enzyme inhibition. Such methods are known to one skilled in the art. The results of this assay are expressed as the inhibitory constant, Ki.
Values of Ki were determined by allowing the protease to react with the substrate in the presence of the inhibitor. Reactions were allowed to go for periods of 20-180 minutes (depending on the protease) and the velocities (rate of absorbance or fluorescence change versus time) were measured. The following relationships were used to calculate Ki values: (vo−vs)/vs=I/(Ki(1+S/Km)) for a competitive inhibitor with one binding site; or vs/vo=A+((B−A)/1+((IC50/(I)n))); and Ki=IC50/(1+S/Km) for a competitive inhibitor where: […]

The mark [3] stands for this setting: from C=CCCOc1ccccc1-c1cn(COCC[Si](C)(C)C)c([C@H](CC=C)NC(=O)OC(C)(C)C)n1, rcm bond, 12-membered ring, Grubbs II (1 eq)/pTsOH, DCM, 1.02 mM, 40.0 °C, 1.0 h.
Where [4] appears, read: from C=CCCCc1ccccc1-c1cn(COCC[Si](C)(C)C)c([C@H](CC=C)NC(=O)OC(C)(C)C)n1, rcm bond, 12-membered ring, Grubbs II (0.4 eq)/pTsOH, DCM, 0.97 mM, 40.0 °C, 1.0 h.

purified human Factor XIa, sequence (P03951 388-625): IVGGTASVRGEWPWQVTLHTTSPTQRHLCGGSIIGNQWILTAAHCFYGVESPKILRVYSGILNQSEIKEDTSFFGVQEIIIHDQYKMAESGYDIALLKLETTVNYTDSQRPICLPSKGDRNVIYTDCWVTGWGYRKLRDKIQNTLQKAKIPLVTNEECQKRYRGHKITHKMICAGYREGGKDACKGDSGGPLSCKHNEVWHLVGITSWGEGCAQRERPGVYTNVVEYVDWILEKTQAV
purified human Factor XIa, sequence (P03951 19-387 partner): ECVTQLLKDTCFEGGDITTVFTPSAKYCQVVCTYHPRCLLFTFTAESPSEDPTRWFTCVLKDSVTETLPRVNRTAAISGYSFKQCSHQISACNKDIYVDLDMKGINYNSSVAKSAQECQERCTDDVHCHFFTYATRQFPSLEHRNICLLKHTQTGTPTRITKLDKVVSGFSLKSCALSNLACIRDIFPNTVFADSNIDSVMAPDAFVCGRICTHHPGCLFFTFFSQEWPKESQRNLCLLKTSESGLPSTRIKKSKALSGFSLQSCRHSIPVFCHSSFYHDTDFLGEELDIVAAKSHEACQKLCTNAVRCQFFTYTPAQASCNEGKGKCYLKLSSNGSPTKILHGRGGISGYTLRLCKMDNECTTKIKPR

On to `CC(C)(C)OC(=O)N[C@H]1C/C=C\CCC(=O)Nc2ccccc2C2=NN=C1O2` (mixture of isomers), for which the ring closure, yield after HPLC (from C=CCCC(=O)Nc1ccccc1-c1nnc([C@H](CC=C)NC(=O)OC(C)(C)C)o1, rcm bond, 13-membered ring, Grubbs II, DCM, 4.8 mM, 75.0 °C, 1.5 h) stood at 27%.
With `COC(=O)Nc1ccc2c(c1)NC(=O)CCN(C(=O)OC(C)(C)C)C[C@H](NC(=O)OCc1ccccc1)c1nc-2cn1COCC[Si](C)(C)C`, in data set [1] (from COC(=O)Nc1ccc(-c2cn(COCC[Si](C)(C)C)c([C@H](CN(CCC(=O)O)C(=O)OC(C)(C)C)NC(=O)OCc3ccccc3)n2)c(N)c1, amide bond, 12-membered ring, BOP/DIEA, DCM/DMF, 0.93 mM, 25.0 °C, 5.0 h), the ring closure, isolated yield stood at 87%.
Usually Ki stands for a measure of affinity in units of concentration, obtained from inhibition or displacement. The low end stands for tighter binding, the high end for weaker binding. `COC(=O)Nc1ccc2c(c1)N[C@@H](C(=O)NCc1ccccn1)CCCC[C@H](NC(=O)/C=C/c1cc(Cl)ccc1-n1cnnn1)c1cc-2ccn1` [II-58] showed a Ki in data set [2] of 21 nM.
In the case of `CC(C)(C)OC(=O)N[C@H]1C/C=C\CCOc2ccccc2-c2cn(COCC[Si](C)(C)C)c1n2`, in data set [1] (setting [3]), the ring closure, isolated yield worked out at 9%.
Regarding `COC(=O)Nc1ccc2c(c1)N[C@@H](C(=O)OC)CC=CC[C@H](NC(=O)OC(C)(C)C)c1nc-2cn1COCC[Si](C)(C)C`, the ring closure, isolated yield in data set [1] (from C=CC[C@H](NC(=O)OC(C)(C)C)c1nc(-c2ccc(NC(=O)OC)cc2N[C@H](CC=C)C(=O)OC)cn1COCC[Si](C)(C)C, rcm bond, 12-membered ring, Grubbs II (0.4 eq), DCE, 40.0 mM, 120.0 °C, 0.33 h) turned out to be 30%.
`COC(=O)Nc1ccc2c(c1)NC(=O)CC/C=C/C[C@H](NC(=O)OC(C)(C)C)C1=NN=C2O1`: the ring closure, isolated yield in data set [1] (from -[5-((S)-1-tert-Butoxycarbonylamino-but-3-enyl)-1,3,4-oxadiazol-2-yl]-3-pent-4-enoylamino-phenyl}-carbamic acid methyl ester, rcm bond, 13-membered ring, Grubbs II (0.36 eq), DCE, 0.61 mM, 75.0 °C) amounted to 19.1%.
Turning to `COC(=O)Nc1ccc2c(c1)NC(=O)C/C=C/CC(NC(=O)OC(C)(C)C)c1cc-2nc(C)n1` (centres unmarked), the ring closure, isolated yield in data set [1] (from C=CCC(=O)Nc1cc(NC(=O)OC)ccc1-c1cc(C(CC=C)NC(=O)OC(C)(C)C)nc(C)n1, rcm bond, 12-membered ring, Grubbs II (0.4 eq)/HCl, DCM, 0.5 mM, 40.0 °C, 4.0 h) was found to be 22%.
In turn, `COC(=O)c1ccc2c(c1)OCCNC(=O)CC(NC(=O)OC(C)(C)C)c1cc-2nnc1Cl` (centres unmarked) showed a ring closure, yield after HPLC (from COC(=O)c1ccc(-c2cc(C(CC(=O)O)NC(=O)OC(C)(C)C)c(Cl)nn2)c(OCCN)c1, amide bond, 12-membered ring, BOP/DIEA/DMAP, DCM/DMF, 1.28 mM, 2.5 h) of 15.3%.
Consider `COC(=O)Nc1ccc2c(c1)NC(=O)CC/C=C/CC(NC(=O)OC(C)(C)C)c1cc-2nnc1Cl` (centres unmarked), for which the ring closure, isolated yield in data set [1] (from C=CCCC(=O)Nc1cc(NC(=O)OC)ccc1-c1cc(C(CC=C)NC(=O)OC(C)(C)C)c(Cl)nn1, rcm bond, 13-membered ring, Grubbs II, DCM, 6.6 mM, 1.0 h) is 56%.
`CC(C)(C)OC(=O)N[C@H]1C/C=C\CCCc2ccccc2-c2cn(COCC[Si](C)(C)C)c1n2` came in with a ring closure, isolated yield in data set [1] (setting [4]) of 17.6%.
`COC(=O)Nc1ccc2c(c1)CCCN(C)C(=O)C[C@H](NC(=O)OC(C)(C)C)c1nc-2cn1COCC[Si](C)(C)C` registered a ring closure, isolated yield in data set [1] (from CNCCCc1cc(NC(=O)OC)ccc1-c1cn(COCC[Si](C)(C)C)c([C@H](CC(=O)O)NC(=O)OC(C)(C)C)n1, amide bond, 12-membered ring, BOP/DIEA/DMAP, DCM/DMF, 8.6 mM, 25.0 °C, 2.0 h) of 39.4%.
Take `CC(C)(C)OC(=O)N[C@H]1C/C=C/CCOc2ccccc2-c2cn(COCC[Si](C)(C)C)c1n2`: the ring closure, isolated yield in data set [1] (setting [3]) came out at 20%.
Turning to `COC(=O)Nc1ccc2c(c1)NC(=O)CC/C=C/C[C@H](NC(=O)OC(C)(C)C)c1cc-2ccn1`, under “from C=CCCC(=O)Nc1cc(NC(=O)OC)ccc1-c1ccnc([C@H](CC=C)NC(=O)OC(C)(C)C)c1, rcm bond, 13-membered ring, Grubbs II/pTsOH, DCM, 0.99 mM, 40.0 °C, 1.5 h”, the ring closure, yield after HPLC worked out at 75%.
In turn, `COC(=O)Nc1ccc2c(c1)N(C(=O)C(F)(F)F)[C@@H](C(=O)OC)CC=CC[C@H](NC(=O)OC(C)(C)C)c1nc-2cn1COCC[Si](C)(C)C` registered a ring closure, isolated yield in data set [1] (from C=CC[C@H](NC(=O)OC(C)(C)C)c1nc(-c2ccc(NC(=O)OC)cc2N(C(=O)C(F)(F)F)[C@H](CC=C)C(=O)OC)cn1COCC[Si](C)(C)C, rcm bond, 12-membered ring, Grubbs II (15 mol%), DCE, 37.3 mM, 84.0 °C, 15.0 h) of 37%.
Regarding “(S)-Methyl N-4-(2-(1-(tert-butoxycarbonylamino)but-3-enyl)-1-((2-(trimethylsilyl)ethoxy)methyl)-1H-imidazol-4-yl)-3-(4-methylpent-4-enamido)phenylmethanimidoperoxoate”, in data set [1] (the molecule shown is the open-chain precursor, rcm bond, 13-membered ring, Grubbs II (0.2 eq), microwave, DCE, 105.0 mM, 120.0 °C), the ring closure, isolated yield worked out at 34.6%.
Regarding `CC(C)(C)OC(=O)N[C@H]1C/C=C/CCCc2ccccc2-c2cn(COCC[Si](C)(C)C)c1n2`, in data set [1] (setting [4]), the ring closure, isolated yield stood at 45.3%.
The compound `COC(=O)Nc1ccc2c(c1)NC(=O)CC/C=C/CC(NC(=O)/C=C/c1cc(Cl)ccc1-n1cnnn1)c1cc-2nnc1Cl` (centres unmarked) [Example 89, {(E)-17-Chloro-15-[(E)-3-(5-chloro-2-tetrazol-1-yl-phenyl)-acryloylamino]-9-oxo-8,18,19-triaza-tricyclo[14.3.1.0^2,7]icosa-1(20),2,4,6,12,16,18-heptaen-5-yl}-carbamic Acid Methyl Ester] yielded a Ki in data set [2] of 1060 nM.
